Assay results as given in US12312343B2, “Rotomeric isomers of 4-alkyl-5-heteroaryl-3H-1,2-dithiole-3-thiones” (ST IP HOLDING AG, priority 2018, dated 2025).

Experiments:
GTF2i = experiment: Human oxidative stress RT2 Profiler PCR array in HGEPp cells: GTF2i; format: cell-based; settings: 100 μg/ml, 24 h, RT-PCR ΔΔCt
Method: (§1) RT-PCR was performed on an iCycler.

UCP2 = experiment: Human oxidative stress RT2 Profiler PCR array in HGEPp cells: UCP2; format: cell-based; settings: 100 μg/ml, 24 h, RT-PCR ΔΔCt
Method: as §1

GCLC = experiment: Human oxidative stress RT2 Profiler PCR array in HGEPp cells: GCLC; format: cell-based; settings: 100 μg/ml, 24 h, RT-PCR ΔΔCt
Method: as §1

HGEPp cells [1] = settings: 100 μg/mL pretreatment; taken from PCT/IB2017/001312; cited from earlier work
GSTP1 = experiment: Human oxidative stress RT2 Profiler PCR array in HGEPp cells: GSTP1; format: cell-based; settings: 100 μg/ml, 24 h, RT-PCR ΔΔCt
Method: as §1

GPX1 = experiment: Human oxidative stress RT2 Profiler PCR array in HGEPp cells: GPX1; format: cell-based; settings: 100 μg/ml, 24 h, RT-PCR ΔΔCt
Method: as §1

ALOX12 = experiment: Human oxidative stress RT2 Profiler PCR array in HGEPp cells: ALOX12; format: cell-based; settings: 100 μg/ml, 24 h, RT-PCR ΔΔCt
Method: as §1

PTGS1 = experiment: Human oxidative stress RT2 Profiler PCR array in HGEPp cells: PTGS1; format: cell-based; settings: 100 μg/ml, 24 h, RT-PCR ΔΔCt
Method: as §1

GCLM = experiment: Human oxidative stress RT2 Profiler PCR array in HGEPp cells: GCLM; format: cell-based; settings: 100 μg/ml, 24 h, RT-PCR ΔΔCt
Method: as §1

SOD1 = experiment: Human oxidative stress RT2 Profiler PCR array in HGEPp cells: SOD1; format: cell-based; settings: 100 μg/ml, 24 h, RT-PCR ΔΔCt
Method: as §1

NQO1 = experiment: Human oxidative stress RT2 Profiler PCR array in HGEPp cells: NQO1; format: cell-based; settings: 100 μg/ml, 24 h, RT-PCR ΔΔCt
Method: as §1

MPO = experiment: Human oxidative stress RT2 Profiler PCR array in HGEPp cells: MPO; settings: 100 μg/ml, 24 h, RT-PCR ΔΔCt
Method: (§2) Pooled primary HGEPp cells were propagated in CnT-Prime epithelial culture medium provided by CellnTec on 100 mm petri dishes coated with 30 mg/ml Type I rat tail collagen (BD Biosciences) diluted in Dulbecco's phosphate-buffered saline (DPBS). HGEPp cells were grown in 12×60 mm Nunc™ Cell Culture dishes at a 2.5×10^4 cells/cm2 density concentration.
(§3) All dosing solutions contained 0.3% of DMSO which is well below the maximum tolerated DMSO percent of 0.8% for HGEPp cells.
(§4) The cDNA from above was mixed with the RT2 SYBR Green fluor Mastermix and aliquoted into the wells of the RT2 Profiler PCR Array. RT-PCR was performed on an iCycler. Gene expression was compared using Ct values and the results were calculated using ΔΔ Ct method with normalization to the average expression levels of the five common genes (ACTB, B2M, GAPDH, HPRT, and RPL13A).

GPX4 = experiment: Human oxidative stress RT2 Profiler PCR array in HGEPp cells: GPX4; settings: 100 μg/ml, 24 h, RT-PCR ΔΔCt
Method: as §2, §3, §4

PRDX2 = experiment: Human oxidative stress RT2 Profiler PCR array in HGEPp cells: PRDX2; settings: 100 μg/ml, 24 h, RT-PCR ΔΔCt
Method: as §2, §3, §4

HGEPp cells [2] = experiment: ROS production in H2O2-induced oxidatively stressed HGEPp cells; settings: HGEPp cells pretreated 24 hrs at 100 μg/mL, then 0.3 mM H2O2 for 4 h; positive control 139%

Row | Compound | GTF2i down regulation relative fold change (GTF2i) [fold] | UCP2 down regulation relative fold change (UCP2) [fold] | GCLC up regulation relative fold change (GCLC) [fold] | ROS level (optical density, Normal = 100% baseline), as reported in PCT/IB2017/001312 (HGEPp cells [1]) [%] | GSTP1 up regulation relative fold change (GSTP1) [fold] | GPX1 up regulation relative fold change (GPX1) [fold] | ALOX12 up regulation relative fold change (ALOX12) [fold] | PTGS1 down regulation relative fold change (PTGS1) [fold] | GCLM up regulation relative fold change (GCLM) [fold] | SOD1 up regulation relative fold change (SOD1) [fold] | NQO1 up regulation relative fold change (NQO1) [fold] | MPO up regulation relative fold change (MPO) [fold] | GPX4 up regulation relative fold change (GPX4) [fold] | PRDX2 down regulation relative fold change (PRDX2) [fold] | ROS level (optical density, Normal = 100% baseline) (HGEPp cells [2]) [%]
1 | Cc1c(-c2cnccn2)ssc1=S [ST-617-API, 4-methyl-5-(pyrazin-2-yl)-3H-1,2-dithiole-3-thione, reference compound] | 0.34 | 0.18 | 4.14 | 124 | 2.17 | 4.88 | 6.15 | 0.22 | 3.03 | 2.46 | 2.95 |  |  |  | 
2 | benzoyl chloride complex of oltipraz [Example 6] | 0.36 | 0.28 | 3.31 |  | 2.74 | 4.43 | 5.93 | 0.28 | 2.25 | 3.92 | 3.17 | 3.05 | 2.91 | 0.31 | 131
3 | Cc1c(-c2cncc[n+]2OC2=CC(=O)OC2=O)ssc1=S [Example 2, hydroxymaleate anhydride complex of oltipraz] | 0.26 | 0.15 | 4.52 |  | 3.07 | 4.8 | 6.46 | 0.23 | 3.01 | 5.13 | 4.07 | 3.21 | 2.84 | 0.26 | 116
